# Measured values reported in article PMC10227131 (Pharmacological Reports, 2023).
# Where a name gives a salt, the structure may show the parent alone. Read-outs that look alike come from different tables or passages of the source. Square brackets hold non-standard residues; d marks the D form. Peptide text beside a SMILES is read from it. 1Nal = N[C@@H](Cc1cccc2ccccc12)C(=O)O; Dmt = Cc1cc(O)cc(C)c1C[C@H](N)C(=O)O
# What was measured:
# MOP receptor [1] = conditions: guinea-pig small intestinal myenteric plexus muscle preparation; ref [18]; cited from earlier work
# DOP receptor [2] = conditions: in vitro; ref [18]; cited from earlier work
# male Sprague–Dawley rats [3] = experiment: Inhibition of castor oil-induced diarrhoea, icv dosing; assay type: in vivo, rat; conditions: for Mean (± SEM) %AUC of % rats with diarrhoea (% of vehicle control): 8 h, vehicle set at 100%; for Cumulative stool weight-area under the curve (CSW-AUC): at 4 h, vehicle 18.3 (± 1.1) g.h
# Method: After an overnight fast (16 h), the pre-dosing stool consistency of individual rats was recorded. […] The weight and consistency of faeces were recorded pre-dose and hourly for 8 h post-dosing for individual animals. The scoring criteria for faeces consistency were as follows: 0 = normal faeces, 1 = well-shaped wet faeces, 2 = shapeless faeces, 3 = shapeless faeces with large amounts of liquid. A score of ≥ 2 for both weight and consistency was defined as diarrhoea.
# (§1) Data are presented as mean ± standard error of mean (SEM). One-way analysis of variance was used for analysing the following data: ΔLatency-AUC of warm water tail flick data (Fig. 2B, D); % Small intestinal transit of charcoal meal data and % change of transit relative to vehicle (Fig. 3A, B); AUC of % rats with diarrhoea (% of vehicle control) (Fig. 4B), Cumulative stool weight difference from vehicle (4 h) (Fig. 4D); ΔMV-AUC, ΔRF-AUC and ΔTv-AUC (Fig. 6A–F). Two-way analysis of variance was used for the following data: MV, RF and Tv data for 2 h WPB test (Fig. 5A–F). The analyses were implemented in GraphPad Prism v9.0.0 (GraphPad Software, Inc., La Jolla, CA USA). Dunnett's multiple comparison test was used for post hoc analysis of all the data. For individual animals in the tail flick test, the increase in tail flick latency above baseline (ΔLatency) was calculated for every assessment time point, and the areas under the ΔLatency versus time curve (AUC) values were estimated using trapezoidal integration as using GraphPad™ Prism v9.0.0. For the castor oil-induced diarrhoea test, the percentage of rats with diarrhoea (%AD) was determined for each time point and plotted against time for individual animals. The areas under the curve (%AD-AUC) values were calculated using GraphPad™ Prism v9.0.0. A value of p ≤ 0.05 was the statistical significance criterion. For one-way ANOVA, F values are expressed as Fdf of treatment, residual. For two-way ANOVA, F values are expressed as Fdf of treatment, time, interaction/residual.
# KOP receptor [4] = conditions: in vitro; ref [18]; cited from earlier work
# MOP receptor [5] = conditions: inhibition of forskolin-stimulated cAMP formation, HEK cells stably expressing MOP receptor; ref Cai et al. [18]; cited from earlier work
# male Sprague–Dawley rats [6] = experiment: Tolerability / neuro-excitatory clinical signs after icv dosing
# KOP receptor [7] = conditions: inhibition of forskolin-stimulated cAMP formation, HEK cells stably expressing KOP receptor; ref Cai et al. [18]; cited from earlier work
# male Sprague–Dawley rats [8] = experiment: Warm-water tail flick test (antinociception), icv dosing; assay type: in vivo, rat; conditions: for Mean (± SEM) peak tail flick latency: baseline latency 2.0–3.5 s; for Mean (± SEM) ΔLatency-AUC: vehicle 0.8 (± 0.3) s.h
# Method: To assess a role for opioid receptors in mediating antinociception, rats were dosed with naloxone (10 mg/kg; sc) 10 min prior icv dosing with CYX-5 at the highest dose tolerated (20 nmol).
# as §1
# [9] = Metabolic stability using rat liver microsomes
# DOP receptor [10] = conditions: mean ± SEM; ref [18]; cited from earlier work
# Text: (§2) By comparison, CYX-5 is a truncated analogue of EM-2 (H-Dmt-Pro-Nal-NH2; Nal: 3-(1-naphthyl)-L-alanine) (Fig. 1). In vitro, CYX-5, like CYX-6, was a G-protein biassed ligand at MOP, DOP and KOP receptors. […] In the forskolin-stimulated cAMP assay in HEK-cells expressing murine MOP, D ...
# MOP receptor [11] = conditions: mean ± SEM; ref [18]; cited from earlier work
# Text: as §2
# DOP receptor [12] = conditions: inhibition of forskolin-stimulated cAMP formation, HEK cells stably expressing DOP receptor, cited from earlier work
# male Sprague–Dawley rats [13] = experiment: GI motility, charcoal meal test, icv dosing; assay type: in vivo, rat; conditions: for Mean (± SEM) % small intestinal transit (%SIT): n = 6, vehicle 77.3 (± 1.9) %
# Method: One hour later, the rats were euthanised and the intestine was collected for measurement of the following: (i) the distance from the pylorus to the front edge of the charcoal meal; (ii) the distance between the pylorus and the distal edge of the ileum. The intestinal transit index was determined by dividing measurement (i) by measurement (ii).
# male Sprague–Dawley rats [14] = experiment: Respiratory function by whole body plethysmography, icv dosing; assay type: in vivo, rat
# Method: After acclimatisation for 30–60 min, respiratory parameters were recorded for 45 min pre-dosing (three 15 min cycles) and for 2 h post-dosing (eight 15 min cycles). In each cycle, rats breathed normal air for 1 min, followed by a hypercapnic gas mixture (8% CO2, 21% O2 and 71% N2) for 5 min and then a 9 min recovery period breathing normal air. Respiratory parameters recorded by the blinded tester (M.Z.I.) included minute ventilation (MV), respiratory frequency (RF) and tidal volume (Tv) using the BioSystem XA software. The baseline was calculated as the mean difference in MV (ΔMV), RF (ΔRF) and Tv (ΔTv) during the pre-dosing exposure to normal air and the hypercapnic gas mixture.
# MOP receptor [15] = conditions: in vitro; ref [18]; cited from earlier work
# male Sprague–Dawley rats [16] = conditions: cited from earlier work
# male Sprague–Dawley rats [17] = conditions: cited from earlier work; for Antinociception, warm water tail flick test: icv, male Sprague–Dawley rats, ref Imam et al. [19]
# male Sprague–Dawley rats [18] = conditions: cited from earlier work; remark: listed apart in the source
# male Sprague–Dawley rats [19] = conditions: cited from earlier work; remark: listed apart in the source
# mice = conditions: sc, ref [27]; cited from earlier work
# [20] = icv, male Sprague–Dawley rats, √/X not defined
# [21] = icv, male Sprague–Dawley rats, ref Imam et al. [19], Kuo et al. [23]
# [22] = icv 100 nmol, n = 6, biphasic profile, data re-used, ref [19]
# [23] = icv 100 nmol, data re-used, ref [19]
molecule,measurement,setting,value
"Cc1cc(O)cc(C)c1C[C@H](N)C(=O)N1CCC[C@H]1C(=O)N[C@@H](Cc1cccc2ccccc12)C(N)=O [CYX-5, H-Dmt-Pro-Nal-NH2] (H-[Dmt]-Pro-[1Nal]-NH2)",MOP receptor agonism ex vivo,MOP receptor [1],potent MOP receptor agonism
same,Recruitment of β-arrestin2 at DOP receptor,DOP receptor [2],lack of recruitment
same,Mean (± SEM) %AUC of % rats with diarrhoea (% of vehicle control),"male Sprague–Dawley rats [3]; icv 3 nmol, n = 7",72.6 (± 10.8) %AD.h
same,Cumulative stool weight-area under the curve (CSW-AUC),male Sprague–Dawley rats [3]; icv 3 nmol,11.7 (± 1.5) g.h
same,Mean (± SEM) %AUC of % rats with diarrhoea (% of vehicle control),"male Sprague–Dawley rats [3]; icv 10 nmol, n = 6",78.5 (± 7.6) %AD.h
same,Cumulative stool weight-area under the curve (CSW-AUC),male Sprague–Dawley rats [3]; icv 10 nmol,13.4 (± 4.1) g.h
same,Mean (± SEM) %AUC of % rats with diarrhoea (% of vehicle control),"male Sprague–Dawley rats [3]; icv 20 nmol, n = 6",68.4 (± 2.6) %AD.h
same,Cumulative stool weight-area under the curve (CSW-AUC),male Sprague–Dawley rats [3]; icv 20 nmol,2.5 (± 0.9) g.h
same,Time to develop diarrhoea in all animals,"male Sprague–Dawley rats [3]; icv 3, 10 and 20 nmol, oral castor oil 2.5 ml, vehicle 3 h",5 h
same,Recruitment of β-arrestin2 at KOP receptor,KOP receptor [4],lack of recruitment
same,"In vitro agonist or antagonist activity, MOP receptor",MOP receptor [5],Agonist^a
same,"Duration of postural abnormalities (flattened torso, splayed legs, ataxia)",male Sprague–Dawley rats [6]; icv 20 nmol,up to 90 min
same,"Rats with mild, intermittent, transient clinical signs of neuroexcitation",male Sprague–Dawley rats [6]; icv 20 nmol,~ 50%
same,"Maximum tolerated dose, icv","male Sprague–Dawley rats [6]; pilot study, rats",20 nmol
same,Side effects at 30 nmol icv,"male Sprague–Dawley rats [6]; preliminary experiment, icv 30 nmol, convulsions, barrel roll, wet-dog shakes, excessive alertness",pronounced neuro-excitatory side effects
same,"In vitro agonist or antagonist activity, KOP receptor",KOP receptor [7],Agonist^a
same,Mean (± SEM) peak tail flick latency,"male Sprague–Dawley rats [8]; icv 3 nmol, n = 6, rats",5.2 (± 0.6) s
same,Mean (± SEM) ΔLatency-AUC,"male Sprague–Dawley rats [8]; icv 3 nmol, n = 6",3.2 (± 0.9) s.h
same,Mean (± SEM) peak tail flick latency,"male Sprague–Dawley rats [8]; icv 10 nmol, n = 6, rats",4.0 (± 0.3) s
same,Mean (± SEM) ΔLatency-AUC,"male Sprague–Dawley rats [8]; icv 10 nmol, n = 6",2.1 (± 0.5) s.h
same,"Antinociception (tail flick), in words","male Sprague–Dawley rats [8]; icv 20 nmol, highest dose tolerated",moderate antinociception
same,Mean (± SEM) peak tail flick latency,"male Sprague–Dawley rats [8]; icv 20 nmol, n = 7, rats",5.5 (± 0.5) s
same,Mean (± SEM) ΔLatency-AUC,"male Sprague–Dawley rats [8]; icv 20 nmol, n = 7, significantly different from vehicle",4.8 (± 0.6) s.h
same,Mean time to peak effect (tail flick),"male Sprague–Dawley rats [8]; icv 3, 10 and 20 nmol, post-dose",1 h
same,"Antinociception, warm water tail flick test",male Sprague–Dawley rats [8]; [20],√
same,Effect of naloxone pre-treatment on antinociception,male Sprague–Dawley rats [8]; naloxone 10 mg/kg sc 10 min prior to icv 20 nmol,completely attenuated
same,half-life,[9],57.6 min
same,Ki,DOP receptor [10],121 ± 10.2 nM
same,Ki,MOP receptor [11],0.7 ± 0.08 nM
same,"In vitro agonist or antagonist activity, DOP receptor",DOP receptor [12]; ref Cai et al. [18],Antagonist^a
same,Mean (± SEM) % small intestinal transit (%SIT),male Sprague–Dawley rats [13]; icv 3 nmol,68.7 (± 2.7) %
same,Mean (± SEM) % small intestinal transit (%SIT),male Sprague–Dawley rats [13]; icv 10 nmol,64.8 (± 6.8) %
same,Mean (± SEM) % small intestinal transit (%SIT),male Sprague–Dawley rats [13]; icv 20 nmol,64.4 (± 3.4) %
same,"Constipation, inhibition of GI motility",male Sprague–Dawley rats [13]; [20],√
same,Effect on minute ventilation,"male Sprague–Dawley rats [14]; icv 20 nmol, n = 6, hypercapnic conditions (8% CO2), awake rats",significant stimulatory effect
same,Effect on tidal volume,"male Sprague–Dawley rats [14]; icv 20 nmol, n = 6, hypercapnic gas mixture",significant increase
same,Effect on respiratory frequency,"male Sprague–Dawley rats [14]; icv 20 nmol, n = 6, normal air and hypercapnic gas exposure",insignificant
same,"Respiratory function, stimulation of minute ventilation","male Sprague–Dawley rats [14]; icv, hypercapnic conditions, awake freely moving rats, √/X not defined",√
same,Recruitment of β-arrestin2 at MOP receptor,MOP receptor [15],lack of recruitment
H-Dmt-Pro-Tmp-Tmp-NH2 [CYX-6],"Respiratory function, stimulation of minute ventilation","male Sprague–Dawley rats [16]; icv, hypercapnic conditions, awake rats, ref Imam et al. [19]",√^b
same,"In vitro agonist or antagonist activity, MOP receptor",MOP receptor [5],Agonist^a
same,"In vitro agonist or antagonist activity, KOP receptor",KOP receptor [7],Antagonist^a
same,"In vitro agonist or antagonist activity, DOP receptor",DOP receptor [12]; ref Cai et al. [18],Antagonist^a
same,"Antinociception, warm water tail flick test",male Sprague–Dawley rats [17],√^b
"CN1CC[C@]23c4c5ccc(O)c4O[C@H]2[C@@H](O)C=C[C@H]3[C@H]1C5 [morphine, morphine hydrochloride]",Effect on respiratory frequency,"male Sprague–Dawley rats [16]; icv 100 nmol, n = 6, hypercapnic gas mixture, relative to vehicle, data re-used, ref [19]",reduced respiratory frequency significantly
same,Effect on minute ventilation,"male Sprague–Dawley rats [16]; icv 100 nmol, n = 6, hypercapnic gas mixture, time of peak effect, data re-used, ref [19]",reduced minute ventilation
same,"Respiratory function, depression of minute ventilation","male Sprague–Dawley rats [16]; icv, hypercapnic conditions, awake rats, ref Imam et al. [19], Kuo et al. [23]","√^b,d"
same,Mean (± SEM) % small intestinal transit (%SIT),"male Sprague–Dawley rats [18]; icv 100 nmol, n = 12, data re-used, ref [19]",22.0 (± 3.4) %
same,"Constipation, inhibition of GI motility",male Sprague–Dawley rats [18]; [21],"√^b,d"
same,Time by which animals developed diarrhoea,"male Sprague–Dawley rats [19]; icv 100 nmol, oral castor oil, data re-used, ref [19]",7 h
same,"Constipation, inhibition of castor oil-induced diarrhoea",male Sprague–Dawley rats [19]; [21],"√^b,d"
same,"In vitro agonist or antagonist activity, DOP receptor",DOP receptor [12]; ref Kuo et al. [36],Agonist^c
same,"First antinociceptive peak tail flick latency, mean (± SEM)",male Sprague–Dawley rats [17]; [22],8.9 (± 0.5) s
same,"Second antinociceptive peak tail flick latency, mean (± SEM)",male Sprague–Dawley rats [17]; [22],10.0 (± 0.0) s
same,"Antinociception (tail flick), in words",male Sprague–Dawley rats [17]; [23],pronounced antinociception
same,Mean time to first peak effect (tail flick),male Sprague–Dawley rats [17]; [23],0.75 h
same,Mean time to second peak effect (tail flick),male Sprague–Dawley rats [17]; [23],1.5 h
same,"Antinociception, warm water tail flick test",male Sprague–Dawley rats [17]; Kuo et al. [23],"√^b,d"
CN1CC[C@]23c4c5ccc(O)c4O[C@H]2C(=O)CC[C@@]3(OCCCc2ccccc2)[C@H]1C5 [14-O-phenylpropyloxymorphone],Fold less potent for inhibition of GI transit compared with antinociception,mice,2.4 fold
